Laboratory results: article PMC10197776 (Research Square, 2023)

Columns and labels:
[1] = target: SARS-CoV-2 3CL^pro (Severe acute respiratory syndrome coronavirus 2, UniProt P0DTD1); assay: biochemical; format: biochemical; details: for IC50: SARS-CoV-2 3CLpro
[2] = system: SARS-CoV-2; parameters: method as in PMID 35352927; details: TMPRSS2 VeroE6 model of SARS-CoV-2 infection; read-out: EC50 (antiviral); cited from earlier work
[3] = Intrinsic clearance in human S9 fractions; format: in vitro ADME
[4] = Intrinsic clearance in human microsomes; format: in vitro ADME
[5] = system: SARS-CoV2; parameters: method as in PMID 33786375, PMID 34161756; details: SARS-CoV2 plaque reduction assay; read-out: antiviral EC50; cited from earlier work

O=C(Cc1cncc2ccccc12)N(Cc1cc(F)cc(Cl)c1)c1ccc(-c2c[nH]cn2)cc1 [compound 27]
fold improvement in IC50 compared to monocyclic pyridine 19 ([1]; IC50 ratio vs 19): > 6 fold | IC50 [1]: 0.026 µM | LipE ([1]; from 3CLpro IC50 and calculated properties): 2.24

Cn1cnc(Cn2c(=O)[nH]/c(=N\c3cc4cn(C)nc4cc3Cl)n(Cc3cc(F)c(F)cc3F)c2=O)n1 [compound 2, Ensitrelvir]
EC50 [2]: 0.37 µM

O=C(Cc1cccnc1)N(Cc1cccc(Cl)c1)c1ccc(-c2cn[nH]c2)cc1 [compound 7]
IC50 [1]: 1.27 µM | LE (ligand efficiency) ([1]; from 3CLpro IC50): 0.27 | reduction in intrinsic clearance metabolism versus 6 [3]: two-fold reduction | reduction in intrinsic clearance metabolism versus 6 [4]: two-fold reduction

N#Cc1ccccc1-c1cc(-c2cc(Cl)cc(OCC3CC3)c2)c(=O)n(-c2cccnc2)c1 [compound 3]
EC50 [5]: 0.98 µM
